Laboratory results: PubChem BioAssay (NCI)
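The compound was tested at five concentrations on cells cultured in 96-well plates, with a 48-hour exposure period. The concentration for full growth arrest is given as TGI.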

What was measured:
Assay in all cases: NCI tumour cell line growth inhibition, 48 h
KM12 colon = tested on: KM12 colon
SK-OV-3 ovarian = tested on: SK-OV-3 ovarian
HS 578T breast = tested on: HS 578T breast
MDA-MB-435 = tested on: MDA-MB-435
RPMI-8226 leukemia = tested on: RPMI-8226 leukemia
MDA-MB-231 breast = tested on: MDA-MB-231 breast
SW-620 colon = tested on: SW-620 colon
NCI-H226 lung = tested on: NCI-H226 lung
UACC-257 melanoma = tested on: UACC-257 melanoma
OVCAR-3 ovarian = tested on: OVCAR-3 ovarian
U251 CNS = tested on: U251 CNS
A549 NSCLC = tested on: A549 NSCLC
HT29 colon = tested on: HT29 colon
BT-549 breast = tested on: BT-549 breast

Compound	TGI (KM12 colon)	TGI (SK-OV-3 ovarian)	TGI (HS 578T breast)	TGI (MDA-MB-435)	TGI (RPMI-8226 leukemia)	TGI (MDA-MB-231 breast)	TGI (SW-620 colon)	TGI (NCI-H226 lung)	TGI (UACC-257 melanoma)	TGI (OVCAR-3 ovarian)	TGI (U251 CNS)	TGI (A549 NSCLC)	TGI (HT29 colon)	TGI (BT-549 breast)
O=C1O[C@H]2[C@H](OC(=O)c3cc(O)c(O)c(O)c3)[C@@H](OC(=O)c3cc(O)c(O)c4c3[C@@H]3C1=CC(=O)C(O)(O)C3(O)O4)[C@H](OC(=O)c1cc(O)c(O)c(O)c1)O[C@@H]2COC(=O)c1cc(O)c(O)c(O)c1 (stereo partly specified)	41.1 µM	> 100 µM	> 100 µM	> 100 µM	> 100 µM	> 100 µM	> 100 µM	> 100 µM	> 100 µM	> 100 µM	> 100 µM	> 100 µM	> 100 µM	> 100 µM
COC(=O)/C=C1/OC(c2ccccc2)=C(C)C1=O	27.1 µM	22.6 µM	83.9 µM	27.5 µM	5.65 µM	15.7 µM	5.58 µM	38.6 µM	–	41.9 µM	27.1 µM	–	4.79 µM	8.45 µM
Cc1cc2nc3ccccc3n2c2nc(N)ccc12	> 100 µM	–	> 100 µM	> 100 µM	70.2 µM	> 100 µM	> 100 µM	84.9 µM	> 100 µM	> 100 µM	–	> 100 µM	> 100 µM	> 100 µM
CCN(CC)CCN(C)c1ccc(CO)c2c1C(=O)c1ccccc1S2=O (stereo unspecified)	4.55 µM	32.4 µM	28.5 µM	3.65 µM	11.8 µM	7.7 µM	3.63 µM	33.6 µM	3.55 µM	4.11 µM	3.27 µM	25.6 µM	2.95 µM	26.7 µM
COc1cccc(C2SC(N)=Nc3c2c(C)nn3C(=O)Cc2ccccc2)c1 (stereo unspecified)	> 100 µM	> 100 µM	> 100 µM	> 100 µM	> 100 µM	> 100 µM	> 100 µM	> 100 µM	> 100 µM	–	–	> 100 µM	> 100 µM	> 100 µM
CC1=C(O)c2ccccc2C(=O)C1=O	> 100 µM	> 100 µM	> 100 µM	> 100 µM	> 100 µM	> 100 µM	> 100 µM	> 100 µM	> 100 µM	> 100 µM	> 90.9 µM	> 100 µM	> 100 µM	99.3 µM
COc1ccc(N=NC(=O)NC(CC(C)C)C(=O)NCC(=O)O)cc1 (stereo unspecified)	> 100 µM	> 100 µM	> 100 µM	> 100 µM	> 100 µM	> 100 µM	> 100 µM	99 µM	> 100 µM	> 100 µM	> 100 µM	> 61.9 µM	> 100 µM	> 100 µM
O=[S@]1c2ccc3ccccc3c2N[C@@H]2[C@H]1[C@H]1C=C[C@@H]2C1	> 100 µM	> 100 µM	> 100 µM	99.6 µM	> 100 µM	> 100 µM	> 100 µM	> 100 µM	> 100 µM	37.6 µM	> 100 µM	> 100 µM	> 100 µM	> 100 µM
